The results in this text go back to DBAASP.

Common to all, as to assay: ≥ marks a high value that may be exact or a test limit, other limits are often not marked, values filed in µg/mL are converted to µM
For experiment [1], the system named is Pseudomonas aeruginosa CMCCB 10104.
Experiment [2] relates to Staphylococcus aureus ATCC 25923.
The test system of experiment [3] is Escherichia coli ATCC 25922.
Experiment [4] concerns Candida albicans ATCC 2002.
In a further experiment the test system is Micrococcus luteus.

SMILES strings stand for the structures. In brackets after ≈: the same amount, converted by molar mass.

The term MIC denotes the smallest concentration in the dilution series that meets the test's criterion for growth inhibition.

As to `CC(C)C[C@H](NC(=O)CNC(=O)[C@@H]1CCCN1C(=O)[C@H](CC(C)C)NC(=O)[C@@H](N)Cc1ccccc1)C(=O)N[C@@H](CCC(=O)O)C(=O)N[C@@H](CS)C(=O)N[C@H](C(=O)N[C@@H](Cc1c[nH]c2ccccc12)C(=O)O)C(C)C` [FLPGLECVW], the MIC was not below 188 µM in experiment [1], more than 188 µM in experiment [2], more than 188 µM in experiment [3] and not below 188 µM in experiment [4].

As for `C[C@@H](O)[C@H](NC(=O)[C@H](CO)NC(=O)[C@H](Cc1ccccc1)NC(=O)[C@@H](N)Cc1ccccc1)C(=O)N[C@@H](CO)C(=O)N[C@H]1CSSC[C@@H](C(=O)O)NC(=O)CNC(=O)[C@H](CO)NC(=O)[C@H](CCCN=C(N)N)NC1=O` [FFSTSCRSGC], the minimum inhibitory concentration (MIC) in experiment [1] is not below 91.4 µM; in experiment [2], more than 91.4 µM; in experiment [3] it was more than 91.4 µM; in experiment [4], not below 91.4 µM.

In the case of `CC[C@H](C)[C@H](NC(=O)[C@H](CC(C)C)NC(=O)[C@H](CC(C)C)NC(=O)[C@H](CC(=O)O)NC(=O)[C@H](CCCCN)NC(=O)[C@@H](NC(=O)[C@@H](NC(=O)CNC(=O)[C@H](CCSC)NC(=O)[C@@H](NC(=O)[C@@H](N)CO)C(C)C)[C@@H](C)O)C(C)C)C(=O)NCC(=O)N[C@@H](C)C(=O)NCC(=O)N[C@@H](CCCCN)C(=O)N[C@@H](CO)C(=O)N[C@@H](C)C(=O)N[C@@H](C)C(=O)N[C@@H](CCC(N)=O)C(=O)N[C@@H](CO)C(=O)N[C@H](C(=O)N[C@@H](CC(C)C)C(=O)N[C@@H](CCCCN)C(=O)N[C@@H](C)C(=O)N[C@@H](CC(C)C)C(=O)N[C@@H](CO)C(=O)N[C@H]1CSSC[C@@H](C(=O)O)NC(=O)[C@H](CC(=O)O)NC(=O)[C@H](CCCCN)NC(=O)[C@H](CO)NC(=O)[C@H](CC(C)C)NC(=O)[C@H](CCCCN)NC1=O)C(C)C` [SVMGTVKDLLIGAGKSAAQSVLKALSCKLSKDC], the MIC in experiment [1] turned out to be 6.32 µM (≈ 21 µg/mL); in experiment [2] it was 3.16 µM (≈ 10.5 µg/mL); in experiment [3], 3.16 µM (≈ 10.5 µg/mL); in experiment [4], 3.16 µM (≈ 10.5 µg/mL).

For `CC[C@H](C)[C@H](NC(=O)CNC(=O)[C@H](CCCCN)NC(=O)CNC(=O)[C@@H](NC(=O)[C@H](Cc1ccccc1)NC(=O)[C@H](CCCCN)NC(=O)[C@H](CO)NC(=O)[C@H](Cc1ccccc1)NC(=O)[C@H](CC(C)C)NC(=O)CN)C(C)C)C(=O)N[C@@H](CCCCN)C(=O)N[C@@H](CC(N)=O)C(=O)N[C@@H](Cc1ccccc1)C(=O)N[C@@H](CC(C)C)C(=O)N[C@H](C(=O)N[C@@H](CCCCN)C(=O)NCC(=O)N[C@H](C(=O)N[C@@H](CCCCN)C(=O)N[C@@H](Cc1cnc[nH]1)C(=O)N[C@H](C(=O)NCC(=O)N[C@@H](CCCCN)C(=O)N[C@@H](CCC(=O)O)C(=O)N[C@H](C(=O)NCC(=O)N[C@@H](CCSC)C(=O)N[C@@H](CC(=O)O)C(=O)N[C@H](C(=O)N[C@H](C(=O)N[C@@H](CCCN=C(N)N)C(=O)N[C@H](C(=O)NCC(=O)N[C@H](C(=O)N[C@@H](CC(=O)O)C(=O)N[C@H](C(=O)N[C@@H](C)C(=O)NCC(=O)N[C@H]1CSSC[C@@H](C(=O)O)NC(=O)[C@H](C(C)C)NC(=O)CNC(=O)[C@H](CCCCN)NC(=O)[C@H]([C@@H](C)CC)NC(=O)[C@H](CCCCN)NC1=O)C(C)C)[C@@H](C)CC)C(C)C)[C@@H](C)CC)C(C)C)C(C)C)[C@@H](C)CC)C(C)C)[C@@H](C)CC` [GLFSKFVGKGIKNFLIKGVKHIGKEVGMDVIRVGIDVAGCKIKGVC], the minimum inhibitory concentration (MIC) in experiment [1] came out at 0.247 µM (≈ 1.2 µg/mL); in experiment [2], 0.247 µM (≈ 1.2 µg/mL); in experiment [3], 0.247 µM (≈ 1.2 µg/mL); in experiment [4], 0.494 µM (≈ 2.4 µg/mL).

Compound `CC[C@H](C)[C@H](NC(=O)CNC(=O)[C@H](CO)NC(=O)[C@@H](NC(=O)[C@H](CC(C)C)NC(=O)[C@H](CCC(=O)O)NC(=O)[C@H](CO)NC(=O)[C@H](C)NC(=O)[C@H](CCCCN)NC(=O)[C@H](CC(=O)O)NC(=O)[C@H](CCCCN)NC(=O)[C@@H](NC(=O)[C@H](CCCCN)NC(=O)[C@H](CCC(N)=O)NC(=O)[C@H](Cc1c[nH]c2ccccc12)NC(=O)[C@H](CC(C)C)NC(=O)CN)[C@@H](C)CC)C(C)C)C(=O)N[C@H](C(=O)N[C@@H](CCC(=O)O)C(=O)NCC(=O)N[C@H](C(=O)N[C@@H](CCCCN)C(N)=O)C(C)C)C(C)C` [GLWQKIKDKASELVSGIVEGVK] had an MIC against Micrococcus luteus of 0.168 µM (≈ 0.4 µg/mL).

In the case of `CC[C@H](C)[C@H](NC(=O)[C@H](CC(C)C)NC(=O)[C@H](CCC(N)=O)NC(=O)[C@@H](NC(=O)[C@H](C)NC(=O)CNC(=O)[C@H](CCCCN)NC(=O)[C@@H](NC(=O)[C@H](CC(C)C)NC(=O)[C@@H](NC(=O)[C@H](Cc1ccccc1)NC(=O)[C@@H](NC(=O)CN)C(C)C)[C@@H](C)O)[C@@H](C)CC)[C@@H](C)O)C(=O)NCC(=O)N[C@@H](CCCCN)C(=O)N[C@H](C(=O)N[C@@H](CC(C)C)C(=O)NCC(=O)N[C@@H](CCCCN)C(=O)N[C@@H](CCC(=O)O)C(=O)N[C@H](C(=O)NCC(=O)N[C@@H](CCCCN)C(=O)N[C@H](C(=O)NCC(=O)N[C@@H](CC(C)C)C(=O)N[C@@H](CCC(=O)O)C(=O)N[C@@H](CC(C)C)C(=O)N[C@@H](CCSC)C(=O)N[C@@H](C)C(=O)N[C@H]1CSSC[C@@H](C(=O)O)NC(=O)[C@H](CCC(N)=O)NC(=O)[C@H](CCCCN)NC(=O)[C@H]([C@@H](C)O)NC(=O)[C@H]([C@@H](C)CC)NC(=O)[C@H](CCCCN)NC1=O)[C@@H](C)O)C(C)C)[C@@H](C)O` [GVFTLIKGATQLIGKTLGKEVGKTGLELMACKITKQC], the MIC came to 4.18 µM (≈ 16.2 µg/mL) in experiment [1], 1.06 µM (≈ 4.1 µg/mL) in experiment [2], 2.09 µM (≈ 8.1 µg/mL) in experiment [3] and 2.09 µM (≈ 8.1 µg/mL) in experiment [4].

Take `CC[C@H](C)[C@H](NC(=O)CN)C(=O)N[C@@H](Cc1ccccc1)C(=O)NCC(=O)N[C@@H](CCCCN)C(=O)N[C@H](C(=O)N[C@@H](CC(C)C)C(=O)NCC(=O)N[C@H](C(=O)NCC(=O)N[C@@H](CCCCN)C(=O)N[C@@H](CCCCN)C(=O)N[C@H](C(=O)N[C@@H](CC(C)C)C(=O)N[C@H]1CSSC[C@@H](C(=O)O)NC(=O)[C@H](CCSC)NC(=O)CNC(=O)[C@H](CO)NC(=O)[C@H](CC(C)C)NC(=O)[C@H](CCC(=O)O)NC1=O)[C@@H](C)O)C(C)C)[C@@H](C)CC` [GIFGKILGVGKKTLCELSGMC]: the minimum inhibitory concentration (MIC) in experiment [1] amounted to 2.92 µM (≈ 6.29 µg/mL); in experiment [2], 2.92 µM (≈ 6.29 µg/mL); in experiment [3] it was 2.92 µM (≈ 6.29 µg/mL); in experiment [4], 1.49 µM (≈ 3.2 µg/mL).

For `CC[C@H](C)[C@@H]1NC(=O)[C@H](CCCCN)NC(=O)[C@@H](NC(=O)[C@H](CCCCN)NC(=O)[C@H](CC(C)C)NC(=O)[C@H](CC(N)=O)NC(=O)[C@H](CC(=O)O)NC(=O)[C@H](CC(C)C)NC(=O)[C@H](CC(C)C)NC(=O)[C@H](CC(N)=O)NC(=O)CNC(=O)[C@H](C)NC(=O)[C@H](CCSC)NC(=O)[C@H](CC(N)=O)NC(=O)[C@H](CCCCN)NC(=O)[C@H](C)NC(=O)[C@@H](NC(=O)[C@H](CC(N)=O)NC(=O)[C@H](CCCCN)NC(=O)[C@H](C)NC(=O)[C@@H](NC(=O)[C@H](CC(=O)O)NC(=O)[C@H](CCSC)NC(=O)[C@H](Cc2ccccc2)NC(=O)CN)[C@@H](C)O)C(C)C)CSSC[C@@H](C(=O)O)NC(=O)[C@H](C)NC(=O)[C@H](CCCCN)NC(=O)[C@H]([C@@H](C)O)NC1=O` [GFMDTAKNVAKNMAGNLLDNLKCKITKAC], the MIC in experiment [1] was found to be 3.21 µM (≈ 9.99 µg/mL); in experiment [2], 0.803 µM (≈ 2.5 µg/mL); in experiment [3], 1.61 µM (≈ 5 µg/mL); in experiment [4], 0.803 µM (≈ 2.5 µg/mL).
